molecular target: T1, PIP4K2C (Homo sapiens, UniProt Q8TBX8); assay: Enzyme Binding Assay (KINOMEscan): active site-directed competition binding to an immobilized ligand; design: purchased Eurofins DiscoverX, San Diego, CA 87-0007-1094; details: 11-point dose response, duplicate, top concentration 5 micromolar; read-out: Pip4k2c Kd: IC50
T1 sequence (Q8TBX8 1-421): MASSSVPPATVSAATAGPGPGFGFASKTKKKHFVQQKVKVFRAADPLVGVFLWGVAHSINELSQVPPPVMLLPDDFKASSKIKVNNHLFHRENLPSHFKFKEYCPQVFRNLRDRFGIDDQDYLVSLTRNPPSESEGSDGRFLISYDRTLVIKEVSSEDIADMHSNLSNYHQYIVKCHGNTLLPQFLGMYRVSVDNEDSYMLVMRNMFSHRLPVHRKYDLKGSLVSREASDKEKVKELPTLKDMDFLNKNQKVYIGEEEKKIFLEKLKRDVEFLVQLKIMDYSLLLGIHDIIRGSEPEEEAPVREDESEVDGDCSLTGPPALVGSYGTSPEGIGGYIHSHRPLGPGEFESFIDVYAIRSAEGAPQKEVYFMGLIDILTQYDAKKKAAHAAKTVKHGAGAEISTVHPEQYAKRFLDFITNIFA
Experimental: Example B-1: Enzyme Binding Assays (KINOMEscan)
PIP4K2C binding constants disclosed herein were determined using the proprietary Human PIP4K2C binding assay (Catalog number 87-0007-1094, Eurofins DiscoverX, San Diego, CA). This assay measures active site-directed competition binding to an immobilized ligand (see https://doi.org/10.1038/nbt1068, herein incorporated by reference in its entirety). Experiments were conducted using an 11-point dose response curve, in duplicate, with a top starting concentration of 5 micromolar; the Levenberg-Marquardt algorithm was used to fit a Hill equation to dose-response data to calculate IC50 values (see Table 5).

| Compound | IC50 [nM] |
| --- | --- |
| CC(=O)N1CCC2(CCC(C(=O)N3CCC(Nc4ncc(Cl)c(-c5cccc(-c6ccccc6)c5)n4)CC3)CC2)CC1 [Compound 13, 1-(9-(4-((4-([1,1′-biphenyl]-3-yl)-5-chloropyrimidin-2-yl)amino)piperidine-1-carbonyl)-3-azaspiro[5.5]undecan-3-yl)ethan-1-one] | < 500 |
| CN1CC(Nc2ncc(Cl)c(-c3cccc(-c4ccccc4)c3)n2)CCC1=O (stereo not drawn) [Compound 14, 5-((4-([1,1′-biphenyl]-3-yl)-5-chloropyrimidin-2-yl)amino)-1-methylpiperidin-2-one] | < 500 |
| O=C1CC(Nc2ncc(Cl)c(-c3cccc(-c4ccccc4)c3)n2)CCN1 (stereo not drawn) [Compound 15, 4-((4-([1,1′-biphenyl]-3-yl)-5-chloropyrimidin-2-yl)amino)piperidin-2-one] | < 500 |
| CN1CCC(Nc2ncc(Cl)c(-c3cccc(-c4ccccc4)c3)n2)CC1=O (stereo not drawn) [Compound 16, 4-((4-([1,1′-biphenyl]-3-yl)-5-chloropyrimidin-2-yl)amino)-1-methylpiperidin-2-one] | < 500 |
| O=C1CCC(Nc2ncc(Cl)c(-c3cccc(-c4ccccc4)c3)n2)CN1 (stereo not drawn) [Compound 17, 5-((4-([1,1′-biphenyl]-3-yl)-5-chloropyrimidin-2-yl)amino)piperidin-2-one] | < 500 |
| CC(=O)N1CCC[C@H](Nc2ncc(Cl)c(-c3cccc(-c4ccccc4)c3)n2)C1 [Compound 18, (S)-1-(3-((4-([1,1′-biphenyl]-3-yl)-5-chloropyrimidin-2-yl)amino)piperidin-1-yl)ethan-1-one] | < 500 |
| NC(=O)[C@H]1CC[C@H](Nc2ncc(Cl)c(-c3cccc(-c4ccccc4)c3)n2)CC1 [Compound 19, trans-4-((4-([1,1′-biphenyl]-3-yl)-5-chloropyrimidin-2-yl)amino)cyclohexane-1-carboxamide] | < 500 |
| CC(=O)N1CCC[C@H](Nc2ncc(Cl)c(N3CCC(c4ccccc4)C3)n2)C1 (stereo partly drawn) [Compound 20, 1-((3S)-3-((5-chloro-4-(3-phenylpyrrolidin-1-yl)pyrimidin-2-yl)amino)piperidin-1-yl)ethan-1-one] | 1000 to 5000 |
| CC(=O)N1CCCC(Nc2ncc(Cl)c(-c3cccc(-c4ccccc4)c3)n2)C1 (stereo not drawn) [Compound 21, 1-(3-((4-([1,1′-biphenyl]-3-yl)-5-chloropyrimidin-2-yl)amino)piperidin-1-yl)ethan-1-one] | < 500 |
| NC(=O)C1CCCC(Nc2ncc(Cl)c(-c3cccc(-c4ccccc4)c3)n2)C1 (stereo not drawn) [Compound 22, 3-((4-([1,1′-biphenyl]-3-yl)-5-chloropyrimidin-2-yl)amino)cyclohexane-1-carboxamide] | < 500 |
| CC(=O)N1CCC(Nc2ncc(Cl)c(-c3cccc(-c4ccccc4)c3)n2)CC1 [Compound 23, 1-(4-((4-([1,1′-biphenyl]-3-yl)-5-chloropyrimidin-2-yl)amino)piperidin-1-yl)ethan-1-one] | < 500 |
| CC(=O)N1CCC(Nc2ncc(Cl)c(N3CCCCC3)n2)CC1 [Compound 24, 1-(4-((5-chloro-4-(piperidin-1-yl)pyrimidin-2-yl)amino)piperidin-1-yl)ethan-1-one] | 1000 to 5000 |
| NC(=O)[C@H]1CC[C@@H](Nc2ncc(Cl)c(-c3ccc(F)cc3)n2)CC1 [Compound 25, cis-4-((5-chloro-4-(4-fluorophenyl)pyrimidin-2-yl)amino)cyclohexane-1-carboxamide] | 500 to 1000 |
| CC(=O)N1CCCC(Nc2ncc(Cl)c(-c3ccc(F)cc3)n2)C1 (stereo not drawn) [Compound 26, 1-(3-((5-chloro-4-(4-fluorophenyl)pyrimidin-2-yl)amino)piperidin-1-yl)ethan-1-one] | 500 to 1000 |
| CC(=O)N1CCC(Nc2ncc(Cl)c(-c3ccc(F)cc3)n2)CC1 [Compound 27, 1-(4-((5-chloro-4-(4-fluorophenyl)pyrimidin-2-yl)amino)piperidin-1-yl)ethan-1-one] | 500 to 1000 |
| CC(=O)N1CCC[C@H](Nc2ncc(Cl)c(N3CCC(c4ccccn4)C3)n2)C1 (stereo partly drawn) [Compound 29, 1-((3S)-3-((5-chloro-4-(3-(pyridin-2-yl)pyrrolidin-1-yl)pyrimidin-2-yl)amino)piperidin-1-yl)ethan-1-one] | 1000 to 5000 |
| CC(=O)N1CCC(Nc2ncc(Cl)c(C3CCN(c4ccccc4)C3)n2)CC1 (stereo not drawn) [Compound 30, 1-(4-((5-chloro-4-(1-phenylpyrrolidin-3-yl)pyrimidin-2-yl)amino)piperidin-1-yl)ethan-1-one] | < 500 |

| Compound | IC50 [nM] |
| --- | --- |
| CC(=O)N[C@H]1CC[C@@H](Nc2ncc(Cl)c(-c3cccc(-c4ccccc4)c3)n2)CC1 [Compound 31, N-(cis-4-((4-([1,1′-biphenyl]-3-yl)-5-chloropyrimidin-2-yl)amino)cyclohexyl)acetamide] | 500 to 1000 |
| CC(=O)N[C@H]1CC[C@H](Nc2ncc(Cl)c(-c3cccc(-c4ccccc4)c3)n2)CC1 [Compound 32, N-(trans-4-((4-([1,1′-biphenyl]-3-yl)-5-chloropyrimidin-2-yl)amino)cyclohexyl)acetamide] | < 500 |
| CC(=O)N1CCC[C@H](Nc2ncc(Cl)c(N3CCCC(c4ccccc4)C3)n2)C1 (stereo partly drawn) [Compound 35, 1-((3S)-3-((5-chloro-4-(3-phenylpiperidin-1-yl)pyrimidin-2-yl)amino)piperidin-1-yl) ethan-1-one] | < 500 |
| CC(=O)N1CCC[C@H](Nc2ncc(Cl)c(-c3cccc(N4CCCCC4)c3)n2)C1 [Compound 37, (S)-1-(3-((5-chloro-4-(3-(piperidin-1-yl)phenyl)pyrimidin-2-yl)amino)piperidin-1-yl)ethan-1-one] | < 500 |
| CC(=O)N1CCC[C@H](Nc2ncc(Cl)c(-c3cccc(C4CCCCC4)c3)n2)C1 [Compound 39, (S)-1-(3-((5-chloro-4-(3-cyclohexylphenyl)pyrimidin-2-yl)amino)piperidin-1-yl)ethan-1-one] | < 500 |
| NC(=O)C1CCCC(Nc2ncc(F)c(-c3cccc(-n4ccccc4=O)c3)n2)C1 (stereo not drawn) [Compound 40, 3-[[5-fluoro-4-[3-(2-oxo-1-pyridyl)phenyl]pyrimidin-2-yl]amino]cyclohexanecarboxamide] | < 500 |
| CNC(=O)[C@H]1CC[C@H](Nc2ncc(Cl)c(-c3cccc(-c4cccc(=O)[nH]4)c3)n2)CC1 [Compound 92, trans-(1r,4r)-4-((5-chloro-4-(3-(6-oxo-1,6-dihydropyridin-2-yl)phenyl)pyrimidin-2-yl)amino)-N-methylcyclohexane-1-carboxamide] | < 500 |
| CC(=O)N[C@H]1CC[C@@H](Nc2ncc(Cl)c(-c3cccc(-n4ccccc4=O)c3)n2)CC1 [Compound 93, cis-N-((1s,4s)-4-((5-chloro-4-(3-(2-oxopyridin-1 (2H)-yl)phenyl)pyrimidin-2-yl)amino)cyclohexyl)acetamide] | < 500 |
| CNC(=O)[C@H]1C[C@@H](Nc2ncc(Cl)c(-c3cccc(-n4ccccc4=O)c3)n2)C1 [Compound 94, cis-3-((5-chloro-4-(3-(2-oxopyridin-1 (2H)-yl)phenyl)pyrimidin-2-yl)amino)-N-methylcyclobutane-1-carboxamide] | < 500 |
| CNC(=O)[C@H]1CC[C@H](Nc2ncc(Cl)c(-c3ccc(=O)n(-c4ccc(F)cc4)c3)n2)CC1 [Compound 95, trans-(1r,4r)-4-((5-chloro-4-(1-(4-fluorophenyl)-6-oxo-1,6-dihydropyridin-3-yl)pyrimidin-2-yl)amino)-N-methylcyclohexane-1-carboxamide] | 1000 to 5000 |
| CC(=O)N[C@H]1CC[C@H](Nc2ncc(Cl)c(-c3ccc(=O)n(C4CC4)c3)n2)CC1 [Compound 96, trans-N-((1r,4r)-4-((5-chloro-4-(1-cyclopropyl-6-oxo-1,6-dihydropyridin-3-yl)pyrimidin-2-yl)amino)cyclohexyl)acetamide] | 500 to 1000 |
| CNC(=O)[C@H]1C[C@@H](Nc2ncc(Cl)c(-c3cnn(C4CC4)c3)n2)C1 [Compound 97, cis-3-((5-chloro-4-(1-cyclopropyl-1H-pyrazol-4-yl)pyrimidin-2-yl)amino)-N-methylcyclobutane-1-carboxamide] | < 500 |
| CC(=O)N1CCC(Nc2ncc(Cl)c(-c3cnn(C4CC4)c3)n2)CC1 [Compound 98, 1-(4-((5-chloro-4-(1-cyclopropyl-1H-pyrazol-4-yl)pyrimidin-2-yl)amino)piperidin-1-yl)ethan-1-one] | < 500 |
| CC(=O)N[C@H]1CC[C@@H](Nc2ncc(Cl)c(-c3cnn(C4CC4)c3)n2)CC1 [Compound 99, cis-N-((1s,4s)-4-((5-chloro-4-(1-cyclopropyl-1H-pyrazol-4-yl)pyrimidin-2-yl)amino)cyclohexyl)acetamide] | 500 to 1000 |
| CC(=O)N[C@H]1CC[C@H](Nc2ncc(Cl)c(C3CCCN(C(=O)C4CC4)C3)n2)CC1 (stereo partly drawn) [Compound 100, trans-N-(4-((5-chloro-4-(1-(cyclopropanecarbonyl)piperidin-3-yl)pyrimidin-2-yl)amino)cyclohexyl)acetamide] | < 500 |
| CNC(=O)[C@H]1CC[C@H](Nc2ncc(Cl)c(-c3cccc(-c4ccc(F)cc4)c3)n2)CC1 [Compound 101, trans-(1r,4r)-4-((5-chloro-4-(4′-fluoro-[1,1′-biphenyl]-3-yl)pyrimidin-2-yl)amino)-N-methylcyclohexane-1-carboxamide] | < 500 |

Source: patent US20260355196A1, “INHIBITORS AND DEGRADERS OF PIP4K PROTEIN” (Larkspur Biosciences, Inc., priority 2023, published 2026)
